Converted amounts (≈) assume the structure as drawn.
What was measured:
[1] = Cmax in BALB/C mouse at 10 mg/kg,po measured upto 24 hrs by LC-MS analysis; format: ADME, organism-based; parameters: route oral, dose 10 mg/kg, time <= 24; conditions: in vivo
[2] = Oral bioavailability in Sprague-Dawley rat at 10 mg/kg measured upto 24 hrs by LC-MS/MS analysis; format: ADME, organism-based; conditions: in vivo
[3] = Tmax in Sprague-Dawley rat at 10 mg/kg, po measured upto 24 hrs by LC-MS/MS analysis; format: ADME, organism-based; conditions: in vivo
[4] = Tmax in Beagle dog at 5 mg/kg, po measured upto 24 hrs by LC-MS/MS analysis; format: ADME, organism-based, Canis lupus familiaris; conditions: in vivo
[5] = AUClast in Sprague-Dawley rat at 2 mg/kg, iv measured upto 24 hrs by LC-MS/MS analysis; format: ADME, organism-based; parameters: route intravenous, dose 2 mg/kg, time <=24; conditions: in vivo
[6] = Cmax in Beagle dog at 5 mg/kg, po measured upto 24 hrs by LC-MS/MS analysis; format: ADME, organism-based, Canis lupus familiaris; parameters: route oral, dose 5 mg/kg, time <=24; conditions: in vivo
[7] = Oral bioavailability in Beagle dog at 5 mg/kg measured upto 24 hrs by LC-MS/MS analysis; format: ADME, organism-based, Canis lupus familiaris; conditions: in vivo
[8] = AUClast in BALB/C mouse at 10 mg/kg, iv measured upto 24 hrs by LC-MS analysis; format: ADME, organism-based; parameters: route intravenous, dose 10 mg/kg, time <= 24; conditions: in vivo
[9] = Cmax in BALB/C mouse at 10 mg/kg, iv measured upto 24 hrs by LC-MS analysis; format: ADME, organism-based; parameters: route intravenous, dose 10 mg/kg, time <= 24; conditions: in vivo
[10] = AUClast in Beagle dog at 1 mg/kg, iv measured upto 24 hrs by LC-MS/MS analysis; format: ADME, organism-based, Canis lupus familiaris; parameters: route intravenous, dose 1 mg/kg, time <=24; conditions: in vivo
[11] = Cmax in Sprague-Dawley rat at 10 mg/kg, po measured upto 24 hrs by LC-MS/MS analysis; format: ADME, organism-based; parameters: route oral, dose 10 mg/kg, time <=24; conditions: in vivo
[12] = Cmax in Sprague-Dawley rat at 2 mg/kg, iv measured upto 24 hrs by LC-MS/MS analysis; format: ADME, organism-based; parameters: route intravenous, dose 2 mg/kg, time <=24; conditions: in vivo
[13] = Volume of distribution at steady state in Beagle dog at 1 mg/kg, iv measured upto 24 hrs by LC-MS/MS analysis; format: ADME, organism-based, Canis lupus familiaris; conditions: in vivo, 1 mg/kg, 24 h
[14] = AUClast in BALB/C mouse at 10 mg/kg,po measured upto 24 hrs by LC-MS analysis; format: ADME, organism-based; parameters: route oral, dose 10 mg/kg, time <= 24; conditions: in vivo
[15] = AUClast in Beagle dog at 5 mg/kg, po measured upto 24 hrs by LC-MS/MS analysis; format: ADME, organism-based, Canis lupus familiaris; parameters: route oral, dose 5 mg/kg, time <=24; conditions: in vivo
[16] = Tmax in Sprague-Dawley rat at 2 mg/kg, iv measured upto 24 hrs by LC-MS/MS analysis; format: ADME, organism-based; conditions: in vivo
[17] = Oral bioavailability in BALB/C mouse at 10 mg/kg measured upto 24 hrs by LC-MS analysis; format: ADME, organism-based; conditions: in vivo
[18] = Tmax in BALB/C mouse at 10 mg/kg, iv measured upto 24 hrs by LC-MS analysis; format: ADME, organism-based; conditions: in vivo
[19] = Tmax in BALB/C mouse at 10 mg/kg, po measured upto 24 hrs by LC-MS analysis; format: ADME, organism-based; conditions: in vivo
[20] = Volume of distribution at steady state in Sprague-Dawley rat at 2 mg/kg, iv measured upto 24 hrs by LC-MS/MS analysis; format: ADME, organism-based; conditions: in vivo, read-out: Vdss
[21] = Cmax in Beagle dog at 1 mg/kg, iv measured upto 24 hrs by LC-MS/MS analysis; format: ADME, organism-based, Canis lupus familiaris; parameters: route intravenous, dose 1 mg/kg, time <=24; conditions: in vivo
[22] = Lipophilicity, log D of compound at pH 7.4; format: physicochemical; conditions: buffer
[23] = Solubility of the compound; format: physicochemical
[24] = Cmax in BALB/C mouse at 1 mg/kg, iv measured upto 24 hrs by LC-MS analysis; format: ADME, organism-based; parameters: route intravenous, dose 1 mg/kg, time <= 24; conditions: in vivo
[25] = AUClast in BALB/C mouse at 1 mg/kg, iv measured upto 24 hrs by LC-MS analysis; format: ADME, organism-based; parameters: route intravenous, dose 1 mg/kg, time <= 24; conditions: in vivo
[26] = Tmax in BALB/C mouse at 1 mg/kg, iv measured upto 24 hrs by LC-MS analysis; format: ADME, organism-based; conditions: in vivo
[27] = Volume of distribution at steady state in BALB/C mouse at 1 mg/kg, iv measured upto 24 hrs by LC-MS analysis; format: ADME, organism-based; conditions: in vivo, read-out: Vdss

`C[C@H](Nc1ncnc2[nH]cnc12)c1nc2cccc(Cl)c2c(=O)n1-c1ccccc1` gave a Cmax [1] of 0.93 µM, a bioavailability [2] of 57% and a Tmax [3] of 72 min. For the same compound, the Tmax [4] was 79.8 min, the AUC(0-t) at 24 h [5] was 2770 nM·h and the Cmax [6] was 5.68 µM. For the same compound, the F [7] was 40%, the AUC(0-t) at 24 h [8] was 4550 nM·h and the Cmax [9] was 13.3 µM. For the same compound, the AUClast [10] was 1880 nM·h, the Cmax [11] was 1.88 µM and the Cmax [12] was 3.64 µM. It also gave a Vdss [13] of 57 L/kg, an AUC(0-t) at 24 h [14] of 328 nM·h and an AUClast [15] of 26250 nM·h. For the same compound, the Tmax [16] was 4.98 min, the bioavailability [17] was 7% and the Tmax [18] was 4.98 min. It also gave a Tmax [19] of 4.98 min, a Vd [20] of 1.66 L/kg and a Cmax [21] of 1.2 µM.
Work on `Cc1nc(N)nc(N[C@@H](C)c2c(-c3ccccc3)c(=O)n3cc(F)ccc3c2-c2ccc(F)cc2)c1C#N` yielded a logD [22] of 3.26 and a solubility [23] of 44.9 µM (≈ 22.9 µg/mL).
For `C[C@H](Nc1nc(N)nc(N)c1C#N)c1c(-c2ccccc2)c(=O)n2cc(F)ccc2c1-c1ccccc1`, the logD [22] was 2.49 and the solubility [23] was 50.6 µM (≈ 24.9 µg/mL).
In the case of `C[C@H](Nc1nc(N)nc(N)c1C#N)c1c(-c2ccccc2)c(=O)n2cc(F)ccc2c1C1CC1`, the Cmax [1] is reported as 1.3 µM, the Cmax [24] is reported as 1.4 µM and the AUC(0-t) at 24 h [25] is reported as 1500 nM·h. The Tmax [26] was 4.8 min, the Vd [27] was 1.8 L/kg and the AUC(0-t) at 24 h [14] was 2400 nM·h. The bioavailability [17] was 16% and the Tmax [19] was 60 min.

Reference: ChEMBL document CHEMBL4715876 (J Med Chem, 2020)
